Experimental data: patent US8637516B2 (IRM LLC, priority 2010, dated 2014)
Like-named read-outs stand apart in the source and are kept apart here.

How the values were obtained:
[1] = biological target: T1, Ba/F3 cells transformed with human Tel-TrkA (Homo sapiens, UniProt P04629); assay: Proliferation of Ba/F3 cells transformed with human Tel-TrkA (Ba/F3 Tel-TrkA); type: cell-based
T1 construct: expressed in transfected cells; host or cells: Ba/F3 murine hematopoietic progenitor cells (luciferase expressing); the other entry of the earlier key: ETV6 (P41212, Transcription factor ETV6)
Text: Compound dilutions were made in 384 well plates.
The emited luminiscence is quantified using ViewLux (PerkinElmer).

parental Ba/F3 cells = assay: Proliferation of parental (untransformed, wt) Ba/F3 cells (BAF3/WT); type: cell-based, murine; conditions: Mus musculus, Table 1, parental cells with IL3, 48 hours
Procedure, shortened: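 Parental Ba/F3 cells, maintained with mouse IL-3, were plated at 700 cells/well with compound (0.17 nM to 10 uM, 3-fold dilutions). After 48 h at 37 °C, proliferation was read by Bright-Glo luminescence.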

[2] = Rat PK (PO 10 mg/kg, IV 3 mg/Kg); type: in vivo; conditions: for F / clearance / half-life / Vd / AUC / Cmax: Rat; for F / AUC / Cmax: PO 10 mg/kg, MC/Tween 80 suspension; for F / clearance / half-life / Vd: IV 3 mg/Kg; for clearance / half-life / Vd / AUC / Cmax: in vivo; for Vd: read-out: Vss
[3] = Table 1, 48 hours, Bright Glo luminescence, read-out: Ba/F3 Tel-TrkA

T1 sequence (P04629 510-796 limits assumed): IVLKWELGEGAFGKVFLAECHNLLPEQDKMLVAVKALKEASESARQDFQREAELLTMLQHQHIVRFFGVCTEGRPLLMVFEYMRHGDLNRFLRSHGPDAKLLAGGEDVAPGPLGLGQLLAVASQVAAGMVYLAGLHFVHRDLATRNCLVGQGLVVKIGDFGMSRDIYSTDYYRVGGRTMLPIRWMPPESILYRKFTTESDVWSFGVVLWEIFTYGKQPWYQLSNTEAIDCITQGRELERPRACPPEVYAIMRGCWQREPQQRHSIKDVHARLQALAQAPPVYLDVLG

IC50 [1, 3] | Structure (SMILES) | IC50 (parental Ba/F3 cells) | also measured
0.022 µM | CS(=O)(=O)N1CCC(NC(=O)c2cnc3ccc(N4CCC[C@@H]4c4cccc(F)c4)nn23)CC1 [X-71, (R)-6-(2-(3-fluorophenyl)pyrrolidin-1-yl)-N-(1-(methylsulfonyl)piperidin-4-yl)imidazo[1,2-b]pyridazine-3-carboxamide] | > 10 µM | –
0.026 µM | CCCS(=O)(=O)N1CCC(NC(=O)c2cnc3ccc(N4CCC[C@@H]4c4cccc(F)c4)nn23)CC1 [X-35] | > 10 µM | –
0.081 µM | CC(=O)N1CCC(NC(=O)c2cnc3ccc(N4CCC[C@@H]4c4cccc(F)c4)nn23)CC1 [X-67] | > 10 µM | –
0.01 µM | O=C(NC1CCOCC1)c1cnc2ccc(N3CCC[C@@H]3c3cccc(F)c3)nn12 [X-93] | > 10 µM | –
0.098 µM | O=C(NC1CCN(C(=O)CO)CC1)c1cnc2ccc(N3CCC[C@@H]3c3cccc(F)c3)nn12 [X-75, (R)-6-(2-(3-fluorophenyl)pyrrolidin-1-yl)-N-(1-(2-hydroxyacetyl)piperidin-4-yl)imidazo[1,2-b]pyridazine-3-carboxamide] | > 10 µM | –
0.042 µM | CCNC(=O)c1cnc2ccc(N3CCCC3c3cccc(F)c3)nn12 (stereo not shown) [X-21] | > 10 µM | –
0.112 µM | COC(=O)c1cnc2ccc(N3CCC[C@@H]3c3cccc(F)c3)nn12 [X-157] | > 10 µM | –
0.21 µM | O=C(NO)c1cnc2ccc(N3CCC[C@@H]3c3cccc(F)c3)nn12 [X-150] | > 10 µM | –
0.058 µM | O=C(NCCN1CCOCC1)c1cnc2ccc(N3CCC[C@@H]3c3cccc(F)c3)nn12 [X-52] | > 10 µM | –
0.012 µM | O=C(N[C@@H]1CCC[C@H]1O)c1cnc2ccc(N3CCC[C@@H]3c3cccc(F)c3)nn12 [X-81] | > 10 µM | –
0.06 µM | CC(C)(C)OC(=O)N1CCC(NC(=O)c2cnc3ccc(N4CCC[C@@H]4c4cccc(F)c4)nn23)CC1 [X-63] | > 10 µM | –
0.042 µM | CCONC(=O)c1cnc2ccc(N3CCCC3c3cccc(F)c3)nn12 (stereo not shown) [X-152, N-ethoxy-6-(2-(3-fluorophenyl)pyrrolidin-1-yl)imidazo[1,2-b]pyridazine-3-carboxamide] | > 10 µM | –
0.038 µM | CS(=O)(=O)N1CC(NC(=O)c2cnc3ccc(N4CCC[C@@H]4c4cccc(F)c4)nn23)C1 [X-68] | > 10 µM | –

Continued, compound first:

Structure (SMILES) | IC50 [1, 3] | IC50 (parental Ba/F3 cells) | also measured
NC(=O)c1cnc2ccc(N3C[C@@H](F)C[C@@H]3c3cc(F)ccc3F)nn12 [X-242] | 0.0005 µM | 2.45 µM | IC50 ([1]; Table 2, read-out: Ba/F3_Te1-Trk-A): 0.0005 µM; F [2]: 28.2%; clearance [2]: 1.1 L/h/kg; half-life [2]: 74.4 min; Vd [2]: 1.58 L/kg; AUC [2]: 7.09 µM·h; Cmax [2]: 1.73 µM; AUC compared with compound #3 of WO2010/033941 ([2]; in words): significant and unexpected increases; Cmax compared with compound #3 of WO2010/033941 ([2]; in words): significant and unexpected increases
CC(=O)Nc1cnc2ccc(N3CCC[C@@H]3c3cc(F)ccc3F)nn12 [reference compound] | – | – | F [2]: 1.5%; clearance [2]: 4.75 L/h/kg; half-life [2]: 12 min; Vd [2]: 1 L/kg; AUC [2]: 0.087 µM·h; Cmax [2]: 0.061 µM
CC(NC(=O)c1cnc2ccc(N3CCC[C@@H]3c3cccc(F)c3)nn12)c1ccc(F)cc1 (stereo partly shown) [X-42] | 0.127 µM | > 9.57 µM | –
O=C(NCc1ccc(F)cc1)c1cnc2ccc(N3CCCC3c3cccc(F)c3)nn12 (stereo not shown) [X-24] | 0.236 µM | > 10 µM | –
O=C(NCC(F)F)c1cnc2ccc(N3C[C@@H](F)C[C@@H]3c3cccc(F)c3)nn12 [X-114] | 0.001 µM | 7.49 µM | –
CC(C)(C)NC(=O)c1cnc2ccc(N3CCC[C@@H]3c3cccc(F)c3)nn12 [X-45] | 0.022 µM | > 10 µM | –
[2H][C@]1(c2cccc(F)c2)CCCN1c1ccc2ncc(C(N)=O)n2n1 [X-9] | 0.012 µM | > 10 µM | –
NC(=NO)c1cnc2ccc(N3CCCC3c3cccc(F)c3)nn12 (stereo not shown) [X-226] | 0.165 µM | > 10 µM | –
N#Cc1cnc2ccc(N3CCOCC3c3cccc(F)c3)nn12 (stereo not shown) [X-3, 6-(3-(3-fluorophenyl)morpholino)imidazo[1,2-b]pyridazine-3-carbonitrile] | 0.957 µM | > 10 µM | –
COCCC(=O)Nc1cnc2ccc(N3CCC[C@@H]3c3cccc(F)c3)nn12 [X-173] | 0.229 µM | > 10 µM | –
O=C(NO)c1cnc2ccc(N3C[C@@H](F)C[C@@H]3c3cccc(F)c3)nn12 [X-153] | 0.01 µM | > 10 µM | –
O=C(NCc1ccc(Cl)nc1)c1cnc2ccc(N3CCC[C@@H]3c3cccc(F)c3)nn12 [X-57] | 0.19 µM | > 10 µM | –
CCOC(=O)c1cnc2ccc(N3CCC(=O)C3c3cccc(F)c3)nn12 (stereo not shown) [X-159, ethyl 6-(2-(3-fluorophenyl)-3-oxopyrrolidin-1-yl)imidazo[1,2-b]pyridazine-3-carboxylate] | 0.251 µM | > 10 µM | –
[2H]C1([2H])CC[C@H](c2cccc(F)c2)N1c1ccc2ncc(C(N)=O)n2n1 [X-11] | 0.025 µM | > 10 µM | –
N/C(=N\OCCO)c1cnc2ccc(N3CCC[C@@H]3c3cccc(F)c3)nn12 [X-229] | 0.331 µM | > 10 µM | –
[2H]C1(c2cccc(F)c2)CCCN1c1ccc2ncc(C(N)=O)n2n1 (stereo not shown) [X-8, 6-(2-(3-fluorophenyl)pyrrolidin-1-yl)imidazo[1,2-b]pyridazine-3-carboxamide] | 0.15 µM | > 10 µM | –
CC(=O)c1cnc2ccc(N3CCC[C@@H]3c3cccc(F)c3)nn12 [X-125, (R)-1-(6-(2-(3-fluorophenyl)pyrrolidin-1-yl)imidazo[1,2-b]pyridazin-3-yl)ethanone] | 0.219 µM | > 10 µM | –
O=C(NCc1cccc(F)c1)c1cnc2ccc(N3CCC[C@@H]3c3cccc(F)c3)nn12 [X-74] | 0.07 µM | > 10 µM | –
CCOC(=O)Nc1cnc2ccc(N3CCC[C@@H]3c3cccc(F)c3)nn12 [X-236, (R)-ethyl 6-(2-(3-fluorophenyl)pyrrolidin-1-yl)imidazo[1,2-b]pyridazin-3-ylcarbamate] | 0.545 µM | > 10 µM | –
CC(C)(C)OC(=O)N1CCC(NC(=O)c2cnc3ccc(N4C[C@@H](F)C[C@@H]4c4cccc(F)c4)nn23)CC1 [X-115] | 0.001 µM | 4.6 µM | –
O=C(CCc1cccc(N2CCOCC2)n1)c1cnc2ccc(N3CCC[C@@H]3c3cccc(F)c3)nn12 [X-129] | 0.088 µM | > 9.71 µM | –
CCONC(=O)c1cnc2ccc(N3C[C@@H](F)C[C@@H]3c3cccc(F)c3)nn12 [X-142, N-ethoxy-6-((2R,4S)-4-fluoro-2-(3-fluorophenyl)pyrrolidin-1-yl)imidazo[1,2-b]pyridazine-3-carboxamide] | 0.001 µM | 6.69 µM | –
O=C(NCCCl)Nc1cnc2ccc(N3CCC[C@H]3c3cccc(F)c3)nn12 [X-209] | 0.252 µM | > 10 µM | –
[2H]C1([2H])CC[C@@H](c2cccc(F)c2)N1c1ccc2ncc(C(N)=O)n2n1 [X-10] | 0.841 µM | > 10 µM | –
N#Cc1cnc2ccc(N3CC(F)(F)C[C@@H]3c3cccc(F)c3)nn12 [X-246, (R)-6-(4,4-difluoro-2-(3-fluorophenyl)pyrrolidin-1-yl)imidazo[1,2-b]pyridazine-3-carbonitrile] | 0.056 µM | > 10 µM | –
C[C@@H]1CN(c2ccc3ncc(C#N)n3n2)[C@@H](c2cccc(F)c2)C1(F)F [X-4, 6-((2S,4R)-3,3-difluoro-2-(3-fluorophenyl)-4-methylpyrrolidin-1-yl)imidazo[1,2-b]pyridazine-3-carbonitrile] | 0.155 µM | > 10 µM | –
